We go through one molecule from US12331058B2, “SHP2 and CDK4/6 dual-target inhibitory compound and pharmaceutical composition containing the same” (CHINA PHARMACEUTICAL UNIVERSITY, priority 2021, dated 2025).

The target in test [1] is CDK4 (Homo sapiens, UniProt P11802). Put plainly: CDK4 enzyme activity test in vitro. It is filed as biochemical. The note with it: Caliper EZ Reader II conversion.
Method: CDK4 Enzyme Activity Test In Vitro
(§7) The compound is dissolved in 100% DMSO to prepare into a 30 mM storage solution, which is stored in −20° C. refrigerator in the dark.
(1) 1×Kinase buffer is prepared.
(2) The preparation of concentration gradient of the compound: tested compound is tested at an initial concentration of 30000 nM according to a customer's request, diluted into a 100% DMSO solution at a 100-fold final concentration in a 384 source plate, diluted by 3-fold with 10 concentrations, 250 nL of compound with a 100-fold final concentration is transferred to the target plate of 384-well-plate by using a dispenser Echo 550.
(3) A Kinase solution with a 2.5-fold final concentration is prepared by using a 1×Kinase buffer.
(4) 10 μL of kinase solution with a 2.5-fold final concentration is added to the compound wells and the positive control wells, respectively; 10 μL of 1×Kinase buffer is added to the negative control wells.
(5) The kinase solution is centrifugated at 1000 rpm for 30 seconds, and incubated at the room temperature for 10 minutes after the reaction plate is shaken and mixed uniformly.
(7) The reaction is initiated by adding 15 μL of the mixed solution of ATP and substrate at a 5/3-fold final concentration.
(8) The 384-well plate is centrifuged at 1000 rpm for 30 seconds, and incubated at the room temperature for 180 minutes after shaking and mixing uniformly.
(9) The kinase reaction is terminated by adding 30 μL of termination detection solution, centrifuged at 1000 rpm for 30 seconds with shaking and mixing uniformly.
(10) The conversion is read by using Caliper EZ Reader II.
Calculation Formula is as follows:
Conversion %_sample denotes a conversion reading of the sample; Conversion % min denotes an average value for negative control wells, represents a conversion reading without enzyme wells; Convesion %_max denotes an average value for positive control wells, represents a conversion reading without compound inhibition wells.
Test [2] concerns MDA-MB-231 cells. Put plainly: In vitro antiproliferative activity (MTT), MDA-MB-231. To be noted: Homo sapiens, MDA-MB-231, 72 h, 3 days of incubation. It is filed as cell-based. On the procedure:
(§1) In Vitro Antiproliferative Activity of Compound 1. Experimental Procedure
(§2) (4) MDA-MB-231, MDA-MB-468 or EMT6 cells are taken out of a liquid nitrogen tank, immediately placed in a constant temperature water bath at 37° C. and melted by shaking, then the cells are poured into a culture flask. The culture solution (containing 10% of fetal bovine serum) is added for dilution. The diluted culture medium is transferred into a centrifuge tube, centrifuged at 1000 r/min for 5 minutes. The supernatant is discarded and fresh culture medium is added for blowing and mixing uniformly. The mixture is transferred into a culture bottle, and cultured in a culture box with a concentration of 5% CO2 at 37° C. When the cells are adhered to the wall and almost fully paved at the bottle bottom, the passage begins. A little amount of fresh culture medium (containing 10% of fetal calf serum) is added to terminate the digestion. The liquid in the culture bottle is poured out, and the culture bottle is washed twice with PBS. The fresh culture medium is added to blow and mix uniformly, and divided evenly into two culture bottles for continuing the culture.
(§3) (5) Cells in the logarithmic phase are taken, and the old culture medium are poured out. The trypsin solution is added for digestion for 3 minutes, and the fresh culture medium containing 10% of fetal bovine serum is added for terminating digestion. The solution is transferred into a centrifuge tube, centrifuged at 1000 r/min for 5 minutes, and the supernatant is discarded. The cells are counted by adding a medium to prepare into a cell suspension. After counting, cells are seeded in 96-well plates at a cell concentration of 5000-10000 cells per well. The 96-well plate with the spread cells is placed in a 5% CO2 incubator at 37° C. for a continuous culture for 24 hours. The drugs are diluted in gradient to 90μ mol/L, 30μ mol/L, 10μ mol/L, […], 0.37μ mol/L with medium and then added to 96-well plates at 100 μL per well, with three multiplex wells per concentration. The control group is added with medium containing solvent with the corresponding concentration, the zeroing hole is added with blank medium with the same volume, and the blank medium is placed in a culture box with 5% CO2 and 37° C. for 3 days of incubation with a replacement of the medium every two days. 20 μL of MTT (5 mg/mL) is added to each well. After mixing uniformly, the mixture is incubated in a 5% CO2 incubator at 37° C. for 4 hours in the absence of light. With a removement of the liquid in the 96-well plate and an addition of 150 μl of DMSO to each well, the mixture is placed on a micro-shaker and shaken to completely dissolve the crystals at the bottom. Subsequently, the 96-well plate is placed in an microplate reader for detection and the absorbance is measured at 490 nm.
(§4) Curve is drawn and inhibition rate of drug to cell and IC50 are calculated. Inhibition ratio=[(average OD value for control group-average OD value for experimental group)/(average OD value for control group-average OD value for blank control group)]×100%. 3. Experimental Results
(§5) The inhibitory activities of the compounds on MDA-MB-231, MDA-MB-468 and EMT6 cell lines are as follows: […]

The subject of test [3] is MDA-MB-468 cells. Put plainly: In vitro antiproliferative activity (MTT), MDA-MB-468. It is filed as cell-based. The note with it: Homo sapiens, MDA-MB-468, 72 h, 3 days of incubation. As to the method: as §1, §2, §3, §4, §5
Test [4] relates to EMT6 cells. Nature of the test: In vitro antiproliferative activity (MTT), EMT6. The class given is cell-based. To be noted: Mus musculus, EMT6, 72 h, 3 days of incubation. As to the method: as §1, §2, §3, §4, §5
Test [5] relates to MDA-MB-231 cells. Nature of the test: Cell cycle experiment (PI flow cytometry), MDA-MB-231. It is filed as cell-based. The note with it: MDA-MB-231, 48 hours, compared with TNO155, Abemaciclib and their combination. As to the method: (§6) Cells are washed once with PBS and 1 mL of trypsin without EDTA (0.25%) is added. When cells change round and part of the cells are suspended, the digestion is terminated by adding PBS, subsequently, the cells are harvested and fixed in 70% ethanol (500 μL) at 4° C. for 24 hours. Cells are collected by washing with PBS and centrifuged at 1500 rpm for 5 minutes, then stained with PI/RNase in the dark at the room temperature for 30 minutes-60 minutes. After incubation, the cells are analyzed by flow cytometry. All experiments are performed 3 times.
Background: Flow cytometry measures light scatter and fluorescence of single cells or particles in a stream.

In test [6] the test system is MDA-MB-468 cells. Put plainly: Cell cycle experiment (PI flow cytometry), MDA-MB-468. The class given is cell-based. To be noted: MDA-MB-468, 48 hours, compared with TNO155, Abemaciclib and their combination. As to the method: as §6
Test [7] deals with SHP2 and CDK4/6. Put plainly: In vitro enzyme activity and antiproliferative activity tests (summary statement).
Test [8] has as its target T1, SHP2 (Homo sapiens, UniProt Q06124).
T1 sequence (Q06124 1-593): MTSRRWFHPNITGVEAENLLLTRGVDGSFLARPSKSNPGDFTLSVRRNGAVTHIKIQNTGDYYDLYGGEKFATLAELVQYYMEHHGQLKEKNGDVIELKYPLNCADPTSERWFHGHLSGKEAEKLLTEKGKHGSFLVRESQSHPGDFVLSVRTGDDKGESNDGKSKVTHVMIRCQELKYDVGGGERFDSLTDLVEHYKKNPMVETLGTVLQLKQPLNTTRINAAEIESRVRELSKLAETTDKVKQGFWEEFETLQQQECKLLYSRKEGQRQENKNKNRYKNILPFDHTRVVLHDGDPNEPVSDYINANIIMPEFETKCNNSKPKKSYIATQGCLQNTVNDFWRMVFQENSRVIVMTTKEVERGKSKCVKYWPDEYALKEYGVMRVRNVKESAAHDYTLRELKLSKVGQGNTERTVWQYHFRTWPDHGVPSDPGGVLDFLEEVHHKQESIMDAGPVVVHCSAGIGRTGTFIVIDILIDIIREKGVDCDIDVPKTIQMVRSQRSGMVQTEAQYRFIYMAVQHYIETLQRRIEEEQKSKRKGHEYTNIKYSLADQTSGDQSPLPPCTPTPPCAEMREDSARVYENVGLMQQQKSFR
Put plainly: SHP2 enzyme activity test in vitro.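 Note: IC50 derived by variable-slope curve fitting of percent inhibition of SHP2 enzymatic activity plotted against log compound concentration.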
Method: SHP2 Enzyme Activity Test In Vitro
SHP2 enzyme activity of the compounds in the above examples are tested as follows.
as §7
The log value for concentration is taken as X-axis and the percent inhibition is taken as Y-axis, and the log (inhibitor) vs. response variable slope of the analysis software GraphPad Prism 5 is used to fit the dose-response curve to obtain the IC50 values for each compound on enzyme activity.

Sequence of CDK4 (P11802 whole entry): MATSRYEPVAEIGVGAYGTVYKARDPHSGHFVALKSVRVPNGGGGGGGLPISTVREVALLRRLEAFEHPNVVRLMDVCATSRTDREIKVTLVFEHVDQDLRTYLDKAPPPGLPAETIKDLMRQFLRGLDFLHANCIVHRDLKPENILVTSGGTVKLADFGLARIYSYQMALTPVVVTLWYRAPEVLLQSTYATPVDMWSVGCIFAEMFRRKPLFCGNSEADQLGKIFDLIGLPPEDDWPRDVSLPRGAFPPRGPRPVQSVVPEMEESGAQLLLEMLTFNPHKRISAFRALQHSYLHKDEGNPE
Sequence of CDK4 (P30281 whole entry partner): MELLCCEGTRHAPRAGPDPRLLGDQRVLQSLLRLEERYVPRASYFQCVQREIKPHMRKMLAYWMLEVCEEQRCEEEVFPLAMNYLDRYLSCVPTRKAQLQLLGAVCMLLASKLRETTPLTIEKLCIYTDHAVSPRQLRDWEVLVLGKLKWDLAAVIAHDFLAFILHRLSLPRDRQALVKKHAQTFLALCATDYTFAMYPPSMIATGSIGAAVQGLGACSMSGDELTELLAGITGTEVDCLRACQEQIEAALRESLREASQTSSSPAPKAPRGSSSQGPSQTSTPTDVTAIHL

With `Cc1nc2c(F)cc(-c3nc(Nc4nccc(Sc5cnc(N6CCC7(CC6)CO[C@@H](C)[C@H]7N)cn5)c4Cl)ncc3F)cc2n1C(C)C` [Compound 14], the IC50 was found to be 19 nM in test [1]; 6.4 µM in test [2]; 1.8 µM in test [3]; 0.6 µM in test [4]; 5 nM in test [8]. Also, the G0/G1 phase arrest entry in test [5] and in test [6] was “better cycle G0/G1 phase arrest” each time. In test [7], the double-target inhibition activity result is reported as “better double-target inhibition activity”.

As usually defined, the IC50 is the point on the concentration scale where inhibition reaches its midpoint. Higher therefore signals weaker potency.
